According to patent US11905288B1, “Pyrido[3″,4″:4′, 5′]pyrrolo[3′,2′:4,5]imidazole[1,2-c]pyrimidine compounds as CK2 inhibitors” (KING FAISAL UNIVERSITY, priority 2023, dated 2024):

Key:
PC3 (prostate) = assay: In vitro cytotoxic activity assay (MTT), PC3; format: cell-based; settings: Homo sapiens, Prostate cell; PC3 (prostate) cells, exposed for 96 hours; read-out: IC50, concentration eliciting a 50% inhibition of cell proliferation
Description: (§1) Compounds 1-15 were screened for their in vitro cytotoxic activity utilizing a 3-(4,5-dimethyl-thiazol-2-yl)-2,5-diphenyltetrazolium bromide (MTT) assay against selected cancer human cell lines consisting of PC3 (prostate), HCT116 (colon), A375 (melanoma), H1299 (lung), MIAPaCa-2 (pancreas), HL60 (leukemia), MCF7 (breast), MDA-MB-231 (breast) (T. Mosmann, J. Immunol. Meth., 1983, 65, 55-63). The cells were cultured at 37° C. in RMPI1640 medium supplemented with 10% fetal bovine serum, 50 IU/mL penicillin, and 50 μg/mL streptomycin in a 5% CO2 incubator. All cells were sub-cultured 3 times/week by trypsinisation. Viable cells were seeded and allowed to adhere for 12 h before a test drug was added in 96-well plates at an initial density of 1.0×10^5 cells/mL. Tumour cell lines were separately exposed to various concentrations of the tested compounds followed by incubation at a temperature of 37° C. during 96 h inside a medium of fresh RMPI 1640. Cells were subsequently incubated at 37° C. using MIT at 0.5 mg/mL during 4 h. After removal of supernatant, formazan crystals were dissolved in isopropanol and the optical density was measured at 570 nm. CX-4945 was used as a positive control.

HCT116 (colon) = assay: In vitro cytotoxic activity assay (MTT), HCT116; format: cell-based; settings: Homo sapiens, HCT-116; HCT116 (colon) cells, exposed for 96 hours; read-out: IC50, concentration eliciting a 50% inhibition of cell proliferation
Description: as §1

A375 (melanoma) = assay: In vitro cytotoxic activity assay (MTT), A375; format: cell-based; settings: Homo sapiens, A-375; A375 (melanoma) cells, exposed for 96 hours; read-out: IC50, concentration eliciting a 50% inhibition of cell proliferation
Description: as §1

H1299 (lung) = assay: In vitro cytotoxic activity assay (MTT), H1299; format: cell-based; settings: Homo sapiens, NCI-H1299; H1299 (lung) cells, exposed for 96 hours; read-out: IC50, concentration eliciting a 50% inhibition of cell proliferation
Description: as §1

MIAPaCa-2 (pancreas) = assay: In vitro cytotoxic activity assay (MTT), MIAPaCa-2; format: cell-based; settings: Homo sapiens, MIA PaCa-2; MIAPaCa-2 (pancreas) cells, exposed for 96 hours; read-out: IC50, concentration eliciting a 50% inhibition of cell proliferation
Description: as §1

HL60 (leukemia) = assay: In vitro cytotoxic activity assay (MTT), HL60; format: cell-based; settings: Homo sapiens, HL-60; HL60 (leukemia) cells, exposed for 96 hours; read-out: IC50, concentration eliciting a 50% inhibition of cell proliferation
Description: as §1

MCF7 (breast) = assay: In vitro cytotoxic activity assay (MTT), MCF7; format: cell-based; settings: Homo sapiens; MCF7 (breast) cells, exposed for 96 hours; read-out: IC50, concentration eliciting a 50% inhibition of cell proliferation
Description: as §1

MDA-MB-231 (breast) = assay: In vitro cytotoxic activity assay (MTT), MDA-MB-231; format: cell-based; settings: Homo sapiens; MDA-MB-231 (breast) cells, exposed for 96 hours; read-out: IC50, concentration eliciting a 50% inhibition of cell proliferation
Description: as §1

[1] = target: T1, recombinant human CK2 (RRββ-holoenzyme) (Homo sapiens, UniProt P68400); assay: CK2 Kinase Assay (33P-ATP, filter plate); format: biochemical; settings: final ATP concentration 15 μM, 10 min at 30° C.; read-out: protein kinase CK2 activity IC50
T1 construct: purchased Millipore
T1 sequence (P68400 whole entry): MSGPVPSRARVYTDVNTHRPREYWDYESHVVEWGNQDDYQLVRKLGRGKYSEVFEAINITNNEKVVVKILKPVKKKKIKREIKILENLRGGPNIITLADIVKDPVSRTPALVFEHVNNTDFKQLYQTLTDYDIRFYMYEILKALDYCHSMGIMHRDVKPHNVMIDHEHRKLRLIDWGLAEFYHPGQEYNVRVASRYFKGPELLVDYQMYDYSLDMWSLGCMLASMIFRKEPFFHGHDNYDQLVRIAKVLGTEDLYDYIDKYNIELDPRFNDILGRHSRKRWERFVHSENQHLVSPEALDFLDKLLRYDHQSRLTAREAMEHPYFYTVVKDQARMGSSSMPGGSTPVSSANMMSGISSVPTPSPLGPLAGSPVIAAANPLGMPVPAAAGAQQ
T1 sequence (P67870 whole entry partner): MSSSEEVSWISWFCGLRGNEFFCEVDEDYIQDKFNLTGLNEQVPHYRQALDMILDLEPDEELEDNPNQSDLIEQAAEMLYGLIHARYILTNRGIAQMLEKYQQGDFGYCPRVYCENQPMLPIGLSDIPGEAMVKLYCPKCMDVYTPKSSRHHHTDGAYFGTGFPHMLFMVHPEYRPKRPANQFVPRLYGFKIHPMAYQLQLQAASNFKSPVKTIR
Description: CK2 Kinase Assay was conducted using the protocol as described in Pierre F. et al; J. Med. Chem. 2011, 54, 635-654. The tested compounds in aqueous solution were added at a volume of 10 μL to a reaction mixture comprising 10 μL of assay dilution buffer (ADB; 20 mM MOPS, pH 7.2, 25 mM β-glycerol phosphate, 5 mM EGTA, 1 mM sodium orthovanadate, and 1 mM dithiothreitol), 10 μL of substrate peptide (RRRDDDSDDD, dissolved in ADB at a concentration of 1 mM), 10 μL of recombinant human CK2 (RRββ-holoenzyme, 25 ng dissolved in ADB; Millipore). Reactions were initiated by the addition of 10 μL of ATP solution (90% 75 mMMgCl2, 75 μM ATP (final ATP concentration: 15 μM) dissolved in ADB; 10% [γ-33P] ATP (stock 1 mCi/100 μL; 3000 Ci/mmol (Perkin-Elmer) and maintained for 10 min at 30° C. The reactions were quenched with 100 μL of 0.75% phosphoric acid and then transferred to and filtered through a phosphor cellulose filter plate (Millipore). After washing each well five times with 0.75% phosphoric acid, the plate was dried under vacuum for 5 min and, following the addition of 15 μL of scintillation fluid to each well, the residual radioactivity was measured using a Wallac luminescence counter. The IC50 values were derived from eight concentrations of test inhibitors.

Clc1cccc(-n2c3ccncc3c3nc4ccncn4c32)c1 [Compound 1, 5-(3-chlorophenyl)-5H-pyrido[3″,4″:4′,5′]pyrrolo[3′,2′:4,5]imidazo[1,2-c]pyrimidine]
IC50 (PC3 (prostate)): 1.3 µM | IC50 (HCT116 (colon)): 2.1 µM | IC50 (A375 (melanoma)): 3.7 µM | IC50 (H1299 (lung)): 2.6 µM | IC50 (MIAPaCa-2 (pancreas)): 0.9 µM | IC50 (HL60 (leukemia)): 2.8 µM | IC50 (MCF7 (breast)): 4.1 µM | IC50 (MDA-MB-231 (breast)): 2.4 µM | IC50 [1]: 0.056 µM
